ChEMBL document CHEMBL1126299, “Synthesis and structure-activity relationships of cephalosporins with C-3' catechol-containing residues” (J Med Chem, 1992)
≈ marks a conversion by molar mass, not a printed value.

What was measured:
Enterobacter cloacae [1] = assay: microbe, parasite or virus in culture
Description: Minimum inhibitory concentration in Enterobacter cloacae, P99- inducible type 1 lactamase producer

Enterobacter cloacae [2] = assay: microbe, parasite or virus in culture; remark: listed apart in the source
Description: Minimum inhibitory concentration in Enterobacter cloacae, DR 401108 constitutive depressed type 1 lactamase producer

Enterobacter cloacae [3] = assay: microbe, parasite or virus in culture; remark: listed apart in the source
Description: Minimum inhibitory concentration in Enterobacter cloacae, P99+ constitutive depressed type 1 lactamase producer

Pseudomonas aeruginosa [4] = assay: microbe, parasite or virus in culture
Description: Minimum inhibitory concentration in Pseudomonas aeruginosa,799/61 permeability mutant

Providencia stuartii [5] = assay: microbe, parasite or virus in culture
Description: Minimum inhibitory concentration in Pseudomonas stuartii, I+442019 inducible type 1 lactamase producer

Pseudomonas aeruginosa [6] = assay: microbe, parasite or virus in culture; remark: listed apart in the source
Description: Minimum inhibitory concentration in Pseudomonas aeruginosa, 18SH constitutive depressed type 1 lactamase producer

Staphylococcus aureus [7] = assay: The compound was tested for minimum inhibitory concentration in Staphylococcus aureus Oxford penicillin sensitive Staphylococcus aureus; format: functional
Pseudomonas aeruginosa [8] = assay: microbe, parasite or virus in culture; remark: listed apart in the source
Description: Minimum inhibitory concentration in Pseudomonas aeruginosa,799WT parent organism

Citrobacter freundii [9] = assay: microbe, parasite or virus in culture
Description: Minimum inhibitory concentration in Citrobacter freundii, I+382010 inducible type 1 lactamase producer

Pseudomonas aeruginosa [10] = assay: microbe, parasite or virus in culture; remark: listed apart in the source
Description: In vitro minimum inhibitory concentration against Pseudomonas aeruginosa (PU21).

Escherichia coli [11] = assay: microbe, parasite or virus in culture
Description: In vitro minimum inhibitory concentration against Escherichia coli (DC0 parent organism).

Pseudomonas aeruginosa [12] = assay: microbe, parasite or virus in culture; remark: listed apart in the source
Description: Minimum inhibitory concentration in Pseudomonas aeruginosa, 18S inducible type 1 lactamase producer

Escherichia coli [13] = assay: microbe, parasite or virus in culture; remark: listed apart in the source
Description: In vitro minimum inhibitory concentration against Escherichia coli (DC2 permeability mutant).

Citrobacter freundii [14] = assay: microbe, parasite or virus in culture; remark: listed apart in the source
Description: Minimum inhibitory concentration in Citrobacter freundii, DR 382031 constitutive depressed type 1

Enterobacter cloacae [15] = assay: microbe, parasite or virus in culture; remark: listed apart in the source
Description: Minimum inhibitory concentration in Enterobacter cloacae, I+401029 inducible type 1 lactamase producer

Providencia stuartii [16] = assay: microbe, parasite or virus in culture; remark: listed apart in the source
Description: Minimum inhibitory concentration in Pseudomonas stuartii, DR 442049 constitutive depressed type 1 lactamase producer

Staphylococcus aureus [17] = assay: The compound was tested for minimum inhibitory concentration in Staphylococcus aureus,147N penicillin sensitive Staphylococcus aureus; format: functional
Pseudomonas aeruginosa [18] = assay: The compound was tested for minimum inhibitory concentration in Pseudomonas aeruginosa,799/61 permeability mutant; format: functional
[19] = The compound was evaluated for area under the curve in marmosets; format: ADME; settings: callithrix, in vivo
[20] = The half life period in marmosets; format: ADME; settings: callithrix, in vivo
Staphylococcus aureus [21] = assay: microbe, parasite or virus in culture
Staphylococcus aureus [22] = assay: microbe, parasite or virus in culture; remark: listed apart in the source
Pseudomonas aeruginosa [23] = assay: The compound was tested for minimum inhibitory concentration in Pseudomonas aeruginosa,799WT parent organism; format: functional

Description for physchem: The dissociation constant of compound was tested for beta-Lactamase stability

SMILES	MIC (Enterobacter cloacae [1])	MIC (Enterobacter cloacae [2])	MIC (Enterobacter cloacae [3])	MIC (Pseudomonas aeruginosa [4])	MIC (Providencia stuartii [5])	MIC (Pseudomonas aeruginosa [6])	MIC (Staphylococcus aureus [7])	MIC (Pseudomonas aeruginosa [8])	MIC (Citrobacter freundii [9])	MIC (Pseudomonas aeruginosa [10])	MIC (Escherichia coli [11])	MIC (Pseudomonas aeruginosa [12])	MIC (Escherichia coli [13])	MIC (Citrobacter freundii [14])	MIC (Enterobacter cloacae [15])	MIC (Providencia stuartii [16])	MIC (Staphylococcus aureus [17])	pKa (physchem)	other results
CC(C)(O/N=C(\C(=O)N[C@@H]1C(=O)N2C(C(=O)O)=C(CCc3ccc(O)c(O)c3)CSC12)c1csc(N)n1)C(=O)O (stereo partly specified)	4 mg/L (≈ 6.76 µM)	32 mg/L (≈ 54.1 µM)	32 mg/L (≈ 54.1 µM)	0.125 mg/L (≈ 0.211 µM)	2 mg/L (≈ 3.38 µM)	0.125 mg/L (≈ 0.211 µM)	8 mg/L (≈ 13.5 µM)	0.06 mg/L (≈ 0.101 µM)	0.25 mg/L (≈ 0.423 µM)	0.25 mg/L (≈ 0.423 µM)	0.125 mg/L (≈ 0.211 µM)	0.03 mg/L (≈ 0.0507 µM)	0.03 mg/L (≈ 0.0507 µM)	16 mg/L (≈ 27 µM)	0.5 mg/L (≈ 0.845 µM)	8 mg/L (≈ 13.5 µM)	16 mg/L (≈ 27 µM)		
CC(C)(O/N=C(\C(=O)N[C@@H]1C(=O)N2C(C(=O)O)=C(CCNC(=O)CNC(=O)c3cc(O)c(O)c(Br)c3)CSC12)c1csc(N)n1)C(=O)O (stereo partly specified)	0.06 mg/L (≈ 0.0779 µM)	> 32 mg/L	8 mg/L (≈ 10.4 µM)	0.008 mg/L (≈ 0.0104 µM)	0.125 mg/L (≈ 0.162 µM)	0.5 mg/L (≈ 0.649 µM)	8 mg/L (≈ 10.4 µM)	0.008 mg/L (≈ 0.0104 µM)	0.015 mg/L (≈ 0.0195 µM)	0.015 mg/L (≈ 0.0195 µM)	0.015 mg/L (≈ 0.0195 µM)	0.008 mg/L (≈ 0.0104 µM)	0.015 mg/L (≈ 0.0195 µM)	8 mg/L (≈ 10.4 µM)	0.06 mg/L (≈ 0.0779 µM)	4 mg/L (≈ 5.19 µM)	16 mg/L (≈ 20.8 µM)		
CC(C)(O/N=C(\C(=O)N[C@@H]1C(=O)N2C(C(=O)O)=C(CNS(=O)(=O)c3ccc(O)c(O)c3)CSC12)c1csc(N)n1)C(=O)O (stereo partly specified)	0.125 mg/L (≈ 0.19 µM)	2 mg/L (≈ 3.05 µM)	2 mg/L (≈ 3.05 µM)		0.5 mg/L (≈ 0.761 µM)	0.125 mg/L (≈ 0.19 µM)		0.008 mg/L (≈ 0.0122 µM)	0.015 mg/L (≈ 0.0228 µM)			0.015 mg/L (≈ 0.0228 µM)		2 mg/L (≈ 3.05 µM)	0.03 mg/L (≈ 0.0457 µM)	8 mg/L (≈ 12.2 µM)		8	MIC (Pseudomonas aeruginosa [18]): 0.008 mg/L (≈ 0.0122 µM)
CC(C)(O/N=C(\C(=O)N[C@@H]1C(=O)N2C(C(=O)O)=C(CCCC(=O)c3cc(O)c(O)c(Cl)c3)CSC12)c1csc(N)n1)C(=O)O (stereo partly specified)	0.03 mg/L (≈ 0.0449 µM)	> 32 mg/L	1 mg/L (≈ 1.5 µM)	0.008 mg/L (≈ 0.012 µM)	0.03 mg/L (≈ 0.0449 µM)	0.015 mg/L (≈ 0.0225 µM)	16 mg/L (≈ 23.9 µM)	0.008 mg/L (≈ 0.012 µM)	0.008 mg/L (≈ 0.012 µM)	0.015 mg/L (≈ 0.0225 µM)	0.008 mg/L (≈ 0.012 µM)	0.008 mg/L (≈ 0.012 µM)	0.008 mg/L (≈ 0.012 µM)	2 mg/L (≈ 2.99 µM)	0.03 mg/L (≈ 0.0449 µM)	1 mg/L (≈ 1.5 µM)	16 mg/L (≈ 23.9 µM)		
CCO/N=C(\C(=O)N[C@@H]1C(=O)N2C(C(=O)O)=C(CNC(=O)c3cc(O)c(O)c(Br)c3)CSC12)c1csc(N)n1 (stereo partly specified)	0.015 mg/L (≈ 0.0234 µM)	128 mg/L (≈ 200 µM)	8 mg/L (≈ 12.5 µM)	0.008 mg/L (≈ 0.0125 µM)	0.125 mg/L (≈ 0.195 µM)	4 mg/L (≈ 6.24 µM)		0.015 mg/L (≈ 0.0234 µM)	0.008 mg/L (≈ 0.0125 µM)	0.06 mg/L (≈ 0.0935 µM)	0.008 mg/L (≈ 0.0125 µM)	0.008 mg/L (≈ 0.0125 µM)	0.008 mg/L (≈ 0.0125 µM)	16 mg/L (≈ 24.9 µM)	0.03 mg/L (≈ 0.0468 µM)	4 mg/L (≈ 6.24 µM)		6.9	AUC [19]: 16.97 mg/h/L; half-life [20]: 0.67 h; MIC (Staphylococcus aureus [21]): 4 mg/L (≈ 6.24 µM); MIC (Staphylococcus aureus [22]): 2 mg/L (≈ 3.12 µM)
CC(C)(O/N=C(\C(=O)N[C@@H]1C(=O)N2C(C(=O)O)=C(CCOC(=O)c3cc(O)c(O)c(Br)c3)CSC12)c1csc(N)n1)C(=O)O (stereo partly specified)	0.03 mg/L (≈ 0.042 µM)	> 128 mg/L	2 mg/L (≈ 2.8 µM)	0.008 mg/L (≈ 0.0112 µM)	0.03 mg/L (≈ 0.042 µM)	0.03 mg/L (≈ 0.042 µM)	8 mg/L (≈ 11.2 µM)	0.008 mg/L (≈ 0.0112 µM)	0.008 mg/L (≈ 0.0112 µM)	0.008 mg/L (≈ 0.0112 µM)	0.008 mg/L (≈ 0.0112 µM)	0.008 mg/L (≈ 0.0112 µM)	0.008 mg/L (≈ 0.0112 µM)	4 mg/L (≈ 5.6 µM)	0.03 mg/L (≈ 0.042 µM)	2 mg/L (≈ 2.8 µM)	8 mg/L (≈ 11.2 µM)	6.5	AUC [19]: 67.7 mg/h/L; half-life [20]: 1.68 h
CC(C)(O/N=C(\C(=O)N[C@@H]1C(=O)N2C(C(=O)O)=C(CNC(=O)c3cnc4cc(O)c(O)cc4n3)CSC12)c1csc(N)n1)C(=O)O (stereo partly specified)	0.03 mg/L (≈ 0.0446 µM)	8 mg/L (≈ 11.9 µM)	0.5 mg/L (≈ 0.743 µM)	0.008 mg/L (≈ 0.0119 µM)	0.25 mg/L (≈ 0.372 µM)	0.008 mg/L (≈ 0.0119 µM)			8 mg/L (≈ 11.9 µM)			0.008 mg/L (≈ 0.0119 µM)		1 mg/L (≈ 1.49 µM)	0.03 mg/L (≈ 0.0446 µM)	8 mg/L (≈ 11.9 µM)			MIC (Pseudomonas aeruginosa [23]): 0.008 mg/L (≈ 0.0119 µM)
